# Activity calls are given as the source filed them.
# What was measured:
# [1] = inhibitors of intracellular T. cruzi replication, confirmation, NIH3T3 host cells, beta-gal luminescence (AID 2044); type: functional, cell-based;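 also: intracellular parasites grown in NIH/3T3 mouse fibroblasts as host cells; luminescent beta-galactosidase reporter signal from transgenic T. cruzi replicating inside host cells; inhibitors lower the luminescence signal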
# [2] = cytotoxicity toward NIH3T3 fibroblasts, dose response, counter-screen, cell-based, ATP luminescence, mouse fibroblasts (AID 2010); type: functional;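 also: cells exposed to compound for about 90 hours before reading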
# [3] = cells
# [4] = HEp-2 cell cytotoxicity, dose response, cytotoxicity control for RSV inhibitor project, HTS (AID 2410); type: functional; settings: human respiratory syncytial virus
# [5] = cells; remark: listed apart in the source
# [6] = molecular target: T1, Sentrin-specific protease 8 (Homo sapiens, UniProt Q96LD8); type: functional;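 also: luminescence read-out of SENP8 inhibition, dose-response confirmation following an ultra-high-throughput screen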
# T1 sequence (Q96LD8 whole entry): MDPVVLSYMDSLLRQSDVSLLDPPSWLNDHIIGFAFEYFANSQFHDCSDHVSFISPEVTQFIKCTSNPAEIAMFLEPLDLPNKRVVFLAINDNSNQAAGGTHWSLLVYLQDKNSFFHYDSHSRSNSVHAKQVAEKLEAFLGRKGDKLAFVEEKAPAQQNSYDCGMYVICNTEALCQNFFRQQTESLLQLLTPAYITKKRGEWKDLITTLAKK
# [7] = molecular target: T2, Serine/threonine-protein phosphatase (Homo sapiens, UniProt Q9BPW0); test: PP5 phosphatase inhibitors, dose response, biochemical, fluorescence (AID 2395)
# T2 sequence (Q9BPW0 whole entry): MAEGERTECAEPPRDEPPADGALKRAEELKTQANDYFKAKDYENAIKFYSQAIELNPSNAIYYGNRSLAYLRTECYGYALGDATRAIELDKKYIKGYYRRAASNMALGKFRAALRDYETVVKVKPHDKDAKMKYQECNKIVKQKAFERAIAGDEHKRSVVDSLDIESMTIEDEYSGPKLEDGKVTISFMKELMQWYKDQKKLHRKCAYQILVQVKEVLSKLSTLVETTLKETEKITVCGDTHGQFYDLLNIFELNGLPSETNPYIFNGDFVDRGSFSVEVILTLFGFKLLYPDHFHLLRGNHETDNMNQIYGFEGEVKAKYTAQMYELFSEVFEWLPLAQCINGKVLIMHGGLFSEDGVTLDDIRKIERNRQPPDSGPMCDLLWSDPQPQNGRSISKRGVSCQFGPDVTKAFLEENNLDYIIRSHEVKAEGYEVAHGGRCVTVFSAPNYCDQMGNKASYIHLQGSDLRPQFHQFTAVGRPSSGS
# [8] = molecular target: T3, Caspase-3 (Homo sapiens, UniProt P42574); type: functional;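 also: Dose-response selectivity test against caspase-3 for candidate inhibitors of sentrin-specific proteases (SENPs)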
# T3 sequence (P42574 whole entry): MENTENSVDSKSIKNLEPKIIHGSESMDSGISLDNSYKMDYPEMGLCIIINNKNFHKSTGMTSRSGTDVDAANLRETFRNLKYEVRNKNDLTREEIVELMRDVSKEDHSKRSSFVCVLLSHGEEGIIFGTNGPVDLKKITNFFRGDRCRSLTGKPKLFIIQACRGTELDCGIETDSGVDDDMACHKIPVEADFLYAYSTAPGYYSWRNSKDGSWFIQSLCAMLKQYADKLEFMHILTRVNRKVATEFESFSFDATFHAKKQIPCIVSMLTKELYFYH
# [9] = molecular target: Serine/threonine-protein phosphatase PP1-alpha catalytic subunit (Homo sapiens, UniProt P62136); test: PP1 phosphatase inhibitors, dose response, biochemical, fluorescence (AID 2394)
# [10] = molecular target: T4, Sentrin-specific protease 7 (Homo sapiens, UniProt Q9BQF6); type: functional;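 also: Luminescence-based dose-response confirmation of ultra-high-throughput screening hits, measuring inhibition of SENP7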
# T4 sequence (Q9BQF6 whole entry): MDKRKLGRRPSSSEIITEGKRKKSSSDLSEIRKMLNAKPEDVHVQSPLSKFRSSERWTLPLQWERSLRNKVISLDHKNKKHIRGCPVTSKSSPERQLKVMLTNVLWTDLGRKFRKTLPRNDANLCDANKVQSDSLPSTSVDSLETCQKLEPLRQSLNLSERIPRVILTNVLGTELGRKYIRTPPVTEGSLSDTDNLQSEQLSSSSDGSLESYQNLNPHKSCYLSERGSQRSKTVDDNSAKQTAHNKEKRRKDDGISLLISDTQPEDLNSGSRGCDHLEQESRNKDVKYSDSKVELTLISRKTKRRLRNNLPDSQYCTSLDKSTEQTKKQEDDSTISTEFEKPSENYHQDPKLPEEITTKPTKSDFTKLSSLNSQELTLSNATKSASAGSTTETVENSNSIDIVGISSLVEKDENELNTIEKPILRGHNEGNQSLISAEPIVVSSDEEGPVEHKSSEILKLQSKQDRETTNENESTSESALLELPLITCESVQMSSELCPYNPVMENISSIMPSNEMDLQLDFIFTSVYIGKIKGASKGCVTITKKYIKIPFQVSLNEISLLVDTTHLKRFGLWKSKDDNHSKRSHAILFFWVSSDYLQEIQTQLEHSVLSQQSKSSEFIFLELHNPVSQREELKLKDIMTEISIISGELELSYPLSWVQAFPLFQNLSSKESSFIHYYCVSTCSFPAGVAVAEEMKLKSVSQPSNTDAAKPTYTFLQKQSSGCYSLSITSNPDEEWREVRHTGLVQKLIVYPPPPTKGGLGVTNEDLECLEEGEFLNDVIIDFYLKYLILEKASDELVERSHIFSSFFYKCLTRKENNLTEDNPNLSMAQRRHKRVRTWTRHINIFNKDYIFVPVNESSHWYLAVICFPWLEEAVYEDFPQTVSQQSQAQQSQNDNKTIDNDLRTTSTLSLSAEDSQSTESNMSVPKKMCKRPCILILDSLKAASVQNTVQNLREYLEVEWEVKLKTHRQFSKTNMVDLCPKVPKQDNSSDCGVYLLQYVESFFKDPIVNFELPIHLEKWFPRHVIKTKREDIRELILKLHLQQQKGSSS
# [11] = molecular target: T5, Sentrin-specific protease 6 (Homo sapiens, UniProt Q9GZR1); type: functional;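 also: Luminescence-based dose-response confirmatory assay of SENP6 inhibition, following up an ultra-high-throughput screen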
# T5 sequence (Q9GZR1 whole entry): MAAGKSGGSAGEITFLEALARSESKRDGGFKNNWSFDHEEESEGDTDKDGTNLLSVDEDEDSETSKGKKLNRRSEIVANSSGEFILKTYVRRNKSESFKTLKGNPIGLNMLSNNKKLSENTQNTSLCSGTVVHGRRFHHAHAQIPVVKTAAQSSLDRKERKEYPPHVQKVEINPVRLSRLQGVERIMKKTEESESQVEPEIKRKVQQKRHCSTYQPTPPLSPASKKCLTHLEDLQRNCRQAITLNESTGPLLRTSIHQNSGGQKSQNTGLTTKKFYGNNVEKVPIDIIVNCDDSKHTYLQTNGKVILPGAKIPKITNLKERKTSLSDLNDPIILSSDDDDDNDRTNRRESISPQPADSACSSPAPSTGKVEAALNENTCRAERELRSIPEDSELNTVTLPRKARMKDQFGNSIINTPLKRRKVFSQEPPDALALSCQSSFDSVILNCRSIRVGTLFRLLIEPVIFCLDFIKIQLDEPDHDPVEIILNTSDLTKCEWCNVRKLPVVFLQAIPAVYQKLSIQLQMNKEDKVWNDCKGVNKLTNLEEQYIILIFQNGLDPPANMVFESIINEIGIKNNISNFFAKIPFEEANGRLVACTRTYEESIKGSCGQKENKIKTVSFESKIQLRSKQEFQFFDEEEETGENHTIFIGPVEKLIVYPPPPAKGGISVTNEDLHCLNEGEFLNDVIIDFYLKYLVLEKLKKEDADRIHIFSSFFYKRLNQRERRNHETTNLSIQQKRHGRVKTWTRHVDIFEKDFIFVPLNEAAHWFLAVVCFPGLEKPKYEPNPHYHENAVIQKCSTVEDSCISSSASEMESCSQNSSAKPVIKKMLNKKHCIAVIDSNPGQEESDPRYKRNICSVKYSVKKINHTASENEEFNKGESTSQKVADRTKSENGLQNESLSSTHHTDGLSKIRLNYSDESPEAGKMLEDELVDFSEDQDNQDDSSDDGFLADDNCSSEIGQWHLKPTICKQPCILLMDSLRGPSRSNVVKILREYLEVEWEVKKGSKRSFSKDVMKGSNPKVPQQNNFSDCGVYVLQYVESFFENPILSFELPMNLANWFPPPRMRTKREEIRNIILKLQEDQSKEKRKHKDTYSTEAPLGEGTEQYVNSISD
# [12] = molecular target: Peroxisome proliferator-activated receptor gamma/Nuclear receptor coactivator 1 (Homo sapiens, UniProt P37231); type: functional;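 also: agonist potency as compounds enhance coactivator SRC-1 recruitment to PPARgamma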
# [13] = molecular target: Peroxisome proliferator-activated receptor gamma/Nuclear receptor coactivator 3 (Homo sapiens, UniProt P37231); type: functional;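 also: agonist potency for raising coactivator recruitment to the receptor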
# [14] = molecular target: Peroxisome proliferator-activated receptor gamma/Nuclear receptor coactivator 2 (Homo sapiens, UniProt P37231); type: functional;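 also: agonist potency for raising coactivator recruitment to the receptor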
# [15] = molecular target: T6, Neuropeptide Y receptor type 2 (Homo sapiens, UniProt P49146); type: functional, cell-based;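 also: HEK293 cells expressing the receptor and a CNG channel; stimulus was NPY near EC95 followed by isoproterenol to raise cAMP; antagonist potency measured as restoring cAMP signal that NPY suppresses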
# T6 sequence (P49146 whole entry): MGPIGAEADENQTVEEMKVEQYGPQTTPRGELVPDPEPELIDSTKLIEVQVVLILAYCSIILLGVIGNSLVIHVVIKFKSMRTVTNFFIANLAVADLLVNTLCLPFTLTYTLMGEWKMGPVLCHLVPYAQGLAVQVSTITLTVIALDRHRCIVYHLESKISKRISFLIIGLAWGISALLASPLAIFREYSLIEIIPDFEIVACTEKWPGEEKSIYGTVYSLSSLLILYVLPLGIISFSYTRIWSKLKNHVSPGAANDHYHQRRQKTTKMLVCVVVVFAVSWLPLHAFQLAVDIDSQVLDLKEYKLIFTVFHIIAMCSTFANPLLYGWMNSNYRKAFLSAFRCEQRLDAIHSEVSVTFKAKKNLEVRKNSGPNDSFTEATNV
# [16] = molecular target: T7, Neuropeptide Y receptor type 1 (Homo sapiens, UniProt P25929); type: functional;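 also: HEK293 cells with a CNG channel challenged with NPY then isoproterenol; potency as antagonist that reverses NPY suppression of cAMP signal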
# T7 sequence (P25929 whole entry): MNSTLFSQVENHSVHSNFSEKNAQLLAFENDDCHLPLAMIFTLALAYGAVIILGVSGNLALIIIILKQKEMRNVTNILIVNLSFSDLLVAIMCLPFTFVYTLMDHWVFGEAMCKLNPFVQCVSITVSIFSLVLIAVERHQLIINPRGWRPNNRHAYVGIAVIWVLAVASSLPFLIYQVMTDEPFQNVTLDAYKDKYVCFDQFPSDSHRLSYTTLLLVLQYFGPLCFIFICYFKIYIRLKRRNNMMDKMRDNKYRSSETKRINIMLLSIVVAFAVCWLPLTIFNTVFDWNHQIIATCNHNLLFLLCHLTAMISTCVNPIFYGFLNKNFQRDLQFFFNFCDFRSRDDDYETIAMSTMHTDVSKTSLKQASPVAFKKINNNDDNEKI
# [17] = system: Streptococcus sp. 'group A'; test: growth inhibition of control SK(-) GAS strain, dose response, counter-screen for streptokinase expression inhibitor project, luminescence, kanamycin, BacTiterGlo, confirmation (AID 1900); type: functional, organism-based
# [18] = system: Streptococcus; test: Group A Streptococcus viability loss, dose response, counter-screen for streptokinase expression inhibitor project, luminescence, BacTiterGlo (AID 1915); type: functional, organism-based;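 also: potency for reduction of bacterial viability or growth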
# [19] = molecular target: T8, Streptokinase A (Streptococcus pyogenes serotype M1, UniProt P10520); test: S. pyogenes streptokinase expression inhibitors, potency, dose response, plasminogen activation absorbance, OD405 (AID 1914); type: functional, Streptococcus pyogenes M1 GAS;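 also: secreted streptokinase activity via plasminogen activation per viability signal from cell pellet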
# T8 sequence (P10520 whole entry): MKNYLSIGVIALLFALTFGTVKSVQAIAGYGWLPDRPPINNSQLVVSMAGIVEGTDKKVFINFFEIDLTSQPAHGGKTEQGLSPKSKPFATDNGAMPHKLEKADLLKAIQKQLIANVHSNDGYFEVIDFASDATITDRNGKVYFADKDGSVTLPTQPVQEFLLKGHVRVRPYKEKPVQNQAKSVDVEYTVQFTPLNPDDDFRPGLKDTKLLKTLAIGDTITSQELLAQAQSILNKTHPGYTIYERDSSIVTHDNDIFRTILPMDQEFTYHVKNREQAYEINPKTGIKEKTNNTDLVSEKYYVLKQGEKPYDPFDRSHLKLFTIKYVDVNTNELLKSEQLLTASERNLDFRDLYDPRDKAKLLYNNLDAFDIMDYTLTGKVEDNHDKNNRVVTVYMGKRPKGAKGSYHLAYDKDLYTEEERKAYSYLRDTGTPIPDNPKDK
# [20] = Luminescence Cell-Based Dose Retest to Confirm Inhibitors of Cancer Stem Cells. [Related pubchem assays (depositor defined):AID2717, AID2721]; type: functional; settings: Homo sapiens
# [21] = Luminescence-based dose response cell-based high throughput screening assay for cytotoxic compounds using the IEC-6 intestinal epithelial cell line. [Related pubchem assays: 1858 (Summary AID.), 1825 (Counterscreen.), 1907 (Confirmation screen.)]; type: functional
# [22] = Luminescence Cell-Based Dose Response HTS to Identify Activators of Luciferase Translation or Activity in H4 […] Cells. [Related pubchem assays: 1829 (Project Summary), 1814 (Primary HTS)]; type: functional
# 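For AC50 in this document: cells exposed to compound for roughly 70 hours or longer before luminescence read.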
# Peroxisome proliferator-activated receptor gamma/Nuclear receptor coactivator 2, sequence (P37231 whole entry): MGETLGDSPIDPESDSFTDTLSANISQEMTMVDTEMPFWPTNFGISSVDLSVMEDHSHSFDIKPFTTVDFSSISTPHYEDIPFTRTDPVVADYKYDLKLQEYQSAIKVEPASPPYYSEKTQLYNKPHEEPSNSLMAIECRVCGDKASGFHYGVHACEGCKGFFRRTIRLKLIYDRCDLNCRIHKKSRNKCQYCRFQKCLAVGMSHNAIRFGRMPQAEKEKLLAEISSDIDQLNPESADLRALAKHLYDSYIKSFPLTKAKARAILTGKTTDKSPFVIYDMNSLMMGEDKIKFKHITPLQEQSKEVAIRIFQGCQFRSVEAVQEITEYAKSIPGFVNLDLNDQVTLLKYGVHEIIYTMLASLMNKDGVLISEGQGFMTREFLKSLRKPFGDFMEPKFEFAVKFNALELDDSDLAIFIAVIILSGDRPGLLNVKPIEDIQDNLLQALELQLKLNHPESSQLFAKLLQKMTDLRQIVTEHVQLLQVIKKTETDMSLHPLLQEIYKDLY
# Peroxisome proliferator-activated receptor gamma/Nuclear receptor coactivator 2, sequence (Q15596 whole entry, further chain): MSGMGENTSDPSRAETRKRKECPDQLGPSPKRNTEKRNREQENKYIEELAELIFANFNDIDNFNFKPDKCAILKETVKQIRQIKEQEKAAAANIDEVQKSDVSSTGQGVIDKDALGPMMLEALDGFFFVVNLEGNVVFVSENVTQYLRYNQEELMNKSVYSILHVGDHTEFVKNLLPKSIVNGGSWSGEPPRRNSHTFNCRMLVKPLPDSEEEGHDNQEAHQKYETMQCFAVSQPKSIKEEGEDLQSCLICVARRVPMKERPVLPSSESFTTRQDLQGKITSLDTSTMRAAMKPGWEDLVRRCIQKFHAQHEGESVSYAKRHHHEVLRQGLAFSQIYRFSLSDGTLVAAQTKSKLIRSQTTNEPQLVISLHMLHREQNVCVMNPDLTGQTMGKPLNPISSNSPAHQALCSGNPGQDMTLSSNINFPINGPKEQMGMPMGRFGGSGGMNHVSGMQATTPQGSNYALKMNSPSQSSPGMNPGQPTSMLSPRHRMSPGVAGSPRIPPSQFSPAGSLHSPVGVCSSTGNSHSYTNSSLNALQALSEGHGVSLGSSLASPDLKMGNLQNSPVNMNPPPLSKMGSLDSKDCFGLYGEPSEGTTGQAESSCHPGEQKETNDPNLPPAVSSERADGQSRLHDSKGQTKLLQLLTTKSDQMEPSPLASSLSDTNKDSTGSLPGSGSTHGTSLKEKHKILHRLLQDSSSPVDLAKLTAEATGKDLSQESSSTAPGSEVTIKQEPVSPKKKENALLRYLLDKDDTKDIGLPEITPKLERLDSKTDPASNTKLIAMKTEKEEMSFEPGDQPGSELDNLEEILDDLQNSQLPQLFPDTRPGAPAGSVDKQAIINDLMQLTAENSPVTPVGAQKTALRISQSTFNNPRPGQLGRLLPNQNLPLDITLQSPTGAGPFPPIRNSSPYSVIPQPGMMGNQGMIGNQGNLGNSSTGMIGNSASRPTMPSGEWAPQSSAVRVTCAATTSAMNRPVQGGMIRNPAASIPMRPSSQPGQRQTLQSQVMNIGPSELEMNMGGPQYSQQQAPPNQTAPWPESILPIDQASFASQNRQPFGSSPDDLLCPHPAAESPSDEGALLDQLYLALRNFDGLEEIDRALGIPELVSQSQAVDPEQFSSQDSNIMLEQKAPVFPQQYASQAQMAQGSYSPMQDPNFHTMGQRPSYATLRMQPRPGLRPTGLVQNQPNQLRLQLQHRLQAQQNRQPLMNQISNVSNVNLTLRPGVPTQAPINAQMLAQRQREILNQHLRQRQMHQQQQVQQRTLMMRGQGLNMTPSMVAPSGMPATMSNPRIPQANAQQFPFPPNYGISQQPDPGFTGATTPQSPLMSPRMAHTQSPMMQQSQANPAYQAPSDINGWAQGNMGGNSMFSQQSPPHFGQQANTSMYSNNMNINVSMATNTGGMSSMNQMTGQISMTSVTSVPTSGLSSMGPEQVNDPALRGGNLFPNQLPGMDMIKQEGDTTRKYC
# Peroxisome proliferator-activated receptor gamma/Nuclear receptor coactivator 1, sequence (P37231 whole entry): as the sequence (P37231 whole entry) above
# Peroxisome proliferator-activated receptor gamma/Nuclear receptor coactivator 1, sequence (Q15788 whole entry, further chain): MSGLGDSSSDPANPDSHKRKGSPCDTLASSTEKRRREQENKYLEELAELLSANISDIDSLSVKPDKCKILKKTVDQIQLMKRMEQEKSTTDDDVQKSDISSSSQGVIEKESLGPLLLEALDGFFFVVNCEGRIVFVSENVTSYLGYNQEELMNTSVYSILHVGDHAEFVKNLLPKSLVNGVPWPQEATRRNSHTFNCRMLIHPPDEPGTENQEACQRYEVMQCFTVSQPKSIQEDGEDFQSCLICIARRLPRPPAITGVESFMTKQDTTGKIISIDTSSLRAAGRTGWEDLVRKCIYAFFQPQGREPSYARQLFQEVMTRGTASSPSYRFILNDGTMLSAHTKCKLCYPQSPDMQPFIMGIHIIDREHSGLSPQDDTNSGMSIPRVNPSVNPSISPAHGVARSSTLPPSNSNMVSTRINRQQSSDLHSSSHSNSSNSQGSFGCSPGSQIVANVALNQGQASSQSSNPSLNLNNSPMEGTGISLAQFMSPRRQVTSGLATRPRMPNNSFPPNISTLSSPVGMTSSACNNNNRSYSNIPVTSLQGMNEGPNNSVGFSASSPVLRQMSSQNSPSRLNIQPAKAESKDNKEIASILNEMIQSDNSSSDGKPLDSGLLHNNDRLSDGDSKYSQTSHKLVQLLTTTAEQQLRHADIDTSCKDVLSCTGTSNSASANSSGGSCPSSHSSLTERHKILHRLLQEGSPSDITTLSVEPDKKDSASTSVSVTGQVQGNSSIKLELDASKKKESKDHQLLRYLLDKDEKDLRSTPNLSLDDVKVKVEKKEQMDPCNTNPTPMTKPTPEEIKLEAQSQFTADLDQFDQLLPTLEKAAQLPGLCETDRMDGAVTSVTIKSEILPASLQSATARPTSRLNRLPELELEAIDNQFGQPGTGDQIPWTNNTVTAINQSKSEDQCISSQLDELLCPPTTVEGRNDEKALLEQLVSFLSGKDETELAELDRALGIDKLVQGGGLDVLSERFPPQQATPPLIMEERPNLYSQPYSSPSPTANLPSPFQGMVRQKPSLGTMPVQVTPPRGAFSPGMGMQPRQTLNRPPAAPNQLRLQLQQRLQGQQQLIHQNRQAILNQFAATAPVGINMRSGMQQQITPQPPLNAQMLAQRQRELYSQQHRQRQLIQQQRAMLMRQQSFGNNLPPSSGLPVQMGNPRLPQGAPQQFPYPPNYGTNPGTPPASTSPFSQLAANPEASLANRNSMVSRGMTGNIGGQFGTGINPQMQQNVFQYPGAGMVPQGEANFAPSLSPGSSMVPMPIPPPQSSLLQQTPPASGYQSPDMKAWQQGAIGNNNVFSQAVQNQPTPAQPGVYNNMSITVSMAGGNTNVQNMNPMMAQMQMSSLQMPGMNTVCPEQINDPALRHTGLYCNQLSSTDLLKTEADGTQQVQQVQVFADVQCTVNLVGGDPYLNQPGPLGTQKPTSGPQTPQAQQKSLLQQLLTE
# Serine/threonine-protein phosphatase PP1-alpha catalytic subunit, sequence (P62136 whole entry): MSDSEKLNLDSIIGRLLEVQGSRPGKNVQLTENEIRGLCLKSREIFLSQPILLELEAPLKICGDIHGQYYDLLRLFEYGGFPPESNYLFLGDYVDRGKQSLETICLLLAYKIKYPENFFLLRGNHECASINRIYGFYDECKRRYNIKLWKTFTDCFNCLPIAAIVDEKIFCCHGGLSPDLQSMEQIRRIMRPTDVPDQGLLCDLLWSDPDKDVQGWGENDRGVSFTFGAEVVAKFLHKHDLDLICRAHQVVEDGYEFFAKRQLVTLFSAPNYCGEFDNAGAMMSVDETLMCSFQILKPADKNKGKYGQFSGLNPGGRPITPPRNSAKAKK
smiles,measurement,setting,value
CCOc1ccc(OCC(O)CNC2CCN(Cc3ccccc3)CC2)cc1 (configuration not stated),EC50,[1],< 0.1 µM (active)
same,EC50,[2],9.8 µM (active)
same,EC50,[3],0.255 µM (active)
Cc1ccc2cc(CN(CC3CCCO3)C(S)=NCc3ccco3)c(O)nc2c1C (configuration not stated),CC50,[4],24.3 µM (active)
same,IC50,[5],24.6 µM (active)
CN1CC[C@@]2(C)c3cc(O)ccc3N(C)C2O1 (some centres not stated),IC50,[6],10.7 µM (active)
same,IC50,[7],> 7.45 µM (active)
same,IC50,[8],> 100 µM (inactive)
same,IC50,[9],52.3 µM (not active)
same,IC50,[10],14.3 µM (active)
same,IC50,[11],11.9 µM (active)
O=C(CSc1ccc2nnc(-c3ccc(Cl)cc3)n2n1)N1CCCc2ccccc21,EC50,[12],50.1 µM (not active)
same,EC50,[13],52.3 µM (not active)
same,EC50,[14],27.4 µM (not active)
O=C(/C=C/c1ccc(OCc2c(F)cccc2Cl)cc1)N1CCOCC1,CC50,[4],15.9 µM (active)
same,IC50,[5],10.4 µM (active)
CCOc1ccc(NC(=S)N2CCC(C(O)(c3ccccc3)c3ccccc3)CC2)cc1,IC50,[15],0.22 µM (active)
same,IC50,[16],> 35 µM (not active)
CCOC(=O)c1ccc(NC(=O)CCc2nc(-c3ccc(C)cc3)no2)cc1,EC50,[12],> 79.4 µM (not active)
same,EC50,[13],> 79.4 µM (not active)
same,EC50,[14],> 79.4 µM (not active)
CC(C)COC(=O)c1cccc2c1-c1ccccc1/C2=N\O,EC50,[17],4.74 µM (active)
same,EC50,[18],> 150 µM (not active)
same,IC50,[15],4.96 µM (active)
same,EC50,[19],> 50 µM (not active)
same,IC50,[16],6.46 µM (active)
same,CC50,[4],> 50 µM (active)
same,AC50,[20],5.69 µM (active)
Cc1ccc(Nc2nc(-c3ccncc3)cs2)cc1,IC50,[21],2.71 µM (active)
same,EC50,[1],0.239 µM (active)
same,EC50,[2],8.83 µM (active)
same,EC50,[22],0.149 µM (active)

# From ChEMBL document CHEMBL1201862, “PubChem BioAssay data set” (2004)
